Reference: ChEMBL document CHEMBL3507680, “University of Dundee, Gates Library screen for HepG2 cell viability”

Assay: Human HepG2 cell viability assay in 384 well format
Type: toxicity, cell-based
Design: dose 125 nL, time 70.5 hour; cytotoxicity at 70.5 h: concentration not given beside the values
Conditions: HepG2 cells, read-out: Inhibition

SMILES | cytotoxicity at 70.5 h [%]
Cc1ccc(NCc2cccc3cn[nH]c23)cc1OC1CCOC1 (centres undefined) | -0.654
C[S+]([O-])c1cccc(NC(=O)N(CCC#N)Cc2ccccn2)c1 (centres undefined) | -12
O=C(c1nccc2ccccc12)N(Cc1ccco1)CC1CCCO1 (centres undefined) | 9.69
COC(=O)N1CCC(NC(=O)N2CCCC2c2ccsc2)CC1 (centres undefined) | -4.05
COc1ccc(Cl)cc1CN(C)CC(=O)/N=c1\cc[nH]n1C(C)C1CC1 (centres undefined) | 20.8
CCc1n[nH]c(C2CN(Cc3ncc(CC)o3)CCO2)n1 (centres undefined) | 51.9
CN1CCCN(CCCNC2CCc3cc4c(cc32)OCCO4)CC1 (centres undefined) | 8.36
CCN(C(=O)c1cc2c([nH]c1=O)CCCC2=O)C1CCCCC1 | -5.73
CCN(C(=O)CN1CCCC1c1ccc(F)cc1)c1ccccc1C (centres undefined) | -3.01
CCN(C(=O)CN1CCCC1c1ccc(OC)cc1)c1ccccc1 (centres undefined) | 2.59
CCOc1ccccc1OCC(=O)NCc1ncc(C)c(OC)c1C | -10.2
COc1ccccc1OCC(=O)NCc1ncc(C)c(OC)c1C | 11.5
CN(Cc1cnn(C)c1)C(=O)C1COCC(=O)N1Cc1ccccc1 (centres undefined) | -4.96
COc1c(C)cnc(CNC(=O)CCOCc2ccccc2)c1C | -3.15
CC(C)c1cccc(-n2cc(O)c(C(=O)O)n2)c1 | -5.44
CNC(=O)c1ccc(CNC(=O)c2cc(C(C)C)n(C)n2)cc1 | 10.9
CCCN(C(=O)c1cc2c([nH]c1=O)CCCC2=O)C1CCCCC1 | 27.9
CC(c1ccco1)N(C(=O)c1cc2c([nH]c1=O)CCCC2=O)C1CC1 (centres undefined) | 2.68
CCC(C)n1cnc(S(=O)(=O)N(C)C)c1 (centres undefined) | 14.5
CCC(C)n1cnc(S(=O)(=O)N(Cc2cccnc2)C(C)C)c1 (centres undefined) | 3.97
CCC(C)n1cnc(S(=O)(=O)N(C)c2cccnc2N(C)C)c1 (centres undefined) | -7.28
COc1ccc2c(c1)C(NCCc1ccccn1)CCCO2 (centres undefined) | 16.8
O=c1[nH]nc(CNc2ncc(Cl)cn2)[nH]1 | 28.8
O=C(CN1CCCc2c(F)cc(Br)cc21)N1CCN(C(=O)C2CC2)CC1 | 17.8

SMILES | cytotoxicity at 70.5 h [%]
COCCN(CCOC)C(=O)NC1CCCCC1 | -4.8
COCc1nc(CNc2cccc(-c3nc(C)c(C)o3)c2)cs1 | -16.1
CC(C)c1cccc(-n2cc(O)c(C(=O)NCCCn3cccn3)n2)c1 | -5.65
COc1ccc2c(c1)C(NCCc1ncc(C)s1)CCCO2 (centres undefined) | -7.84
COCC(=O)NCCSCCOc1cccc(Br)c1 | 32
CC(C)(O)CN1CCN(C(=O)COCC2CC2)CC1 | 2.07
O=C(CCCc1ccccn1)NCC(O)c1c(F)cccc1F (centres undefined) | -1.43
Cc1nc(C2CCCN2C(=O)CN(C)Cc2ccccc2)no1 (centres undefined) | -2.86
CC(c1cccnc1)N1CCN(CCO)CC1 (centres undefined) | 7.45
NC(=O)NC(CC(=O)NCCc1cccc(F)c1)c1ccccc1 (centres undefined) | -6.09
NC(=O)NC(CC(=O)NCCc1ccc(F)cc1)c1ccccc1 (centres undefined) | 1.48
CCC(O)CN(CC(=O)Nc1cc(C)no1)c1ccccc1 (centres undefined) | -3.59
CC(C)(C)C(O)CN1CCN(C(=O)COCC2CC2)CC1 (centres undefined) | 1.65
CC(C)(O)CN1CCN(C(=O)COCC(F)(F)F)CC1 | 15.1
COc1cccc(SCC(=O)N2CCCC(N3CCCC3=O)C2)c1 (centres undefined) | -1.58
O=C(CSc1ccccc1)N1CCC(N2CCCCC2=O)CC1 | 19
CCN(Cc1ccoc1)C(C(N)=O)c1ccc(Br)cc1 (centres undefined) | 16.2
CC(C)C(O)CNC(=O)CCCc1ccccn1 (centres undefined) | 2.25
CCCc1ccc(S(=O)(=O)NC2(CC(N)=O)CCC2)cc1 | 1.66
Cc1[nH]ncc1C(C)NCc1cccnc1 (centres undefined) | 5.33
CC(=O)Nc1ccc(C(=O)N2CCOc3nc(C)ccc32)cc1 | -0.0601
COCC(=O)NCCc1ccc(Cl)s1 | -9.93
O=C(CN1CCN(CCO)CC1)NC(C1CC1)C1CC1 | -5.18
CCN(Cc1ccc(Cl)s1)S(=O)(=O)CC | 0.4

SMILES | cytotoxicity at 70.5 h [%]
CCN(Cc1ccc(Cl)s1)S(=O)(=O)CCOC | -13.3
c1csc(CCN2CCCC2c2noc(C3CC3)n2)c1 (centres undefined) | -7.22
Cc1nc(C2CCCN2CCc2cccs2)no1 (centres undefined) | -10.4
CC(C(=O)N1CCc2sccc2C1)N1CCCN(C2CC2)CC1 (centres undefined) | -10.7
Cc1nc(C2CCCN2CCc2ccccn2)no1 (centres undefined) | -5.46
Cn1ccc(C(=O)NCc2cccc(Cn3ccnc3)c2)cc1=O | -4.36
Cc1nccn1Cc1cccc(CNC(=O)c2ccn(C)c(=O)c2)c1 | 13.1
Cc1ccc2nc(NCCCN3CCCCCC3=O)n(C)c(=O)c2c1 | -20
Cc1nc(NC(=O)C(C)S(C)(=O)=O)sc1Cc1ccc(F)cc1 (centres undefined) | 7.99
Cc1ccc(Cc2sc(NC(=O)C(C)S(C)(=O)=O)nc2C)cc1 (centres undefined) | -3.98
Cn1nc(C(=O)NCc2cccc(Cn3ccnc3)c2)ccc1=O | 3.47
CC(=O)NC1CCCN(C(=O)Nc2nnc(C(C)C)s2)C1 (centres undefined) | 0.76
CC(C(=O)N1CCc2sccc2C1)N1CCC(N2CCCC2)CC1 (centres undefined) | 0.91
COc1cc(OC)c(CNC(=O)NCc2ccc(C#N)cc2)c(OC)c1 | 3.35
N#Cc1ccc(NC2CCN(c3ncccn3)CC2)cc1Cl | 7.18
Cc1cc(C(=O)NS(C)(=O)=O)ccc1I | -4.1
Cn1ncnc1NS(=O)(=O)c1ccc(F)cc1 | -0.583
Cc1c(CNC(=O)C2CCCN2C(=O)C2CC2)oc2ccccc12 (centres undefined) | -7.22
CCc1nsc(NC2CCOC3(CCCC3)C2)n1 (centres undefined) | 1.42
CC(C)c1nnc(CNc2nc(-c3cccnc3)nc3c2CCC3)n1C | -1.97
COC(=O)CCN1CCC(NC(=O)OC(C)(C)C)CC1 | 1.05
CCOCc1nnc(NCc2cccc(C)c2)o1 | -3.75
CS(=O)(=O)N1CCC(Nc2ccc(C#N)c(C(F)(F)F)c2)CC1 | 8.33
Cc1ncc(CN(C)CC(O)c2ccc(OC(F)(F)F)cc2)s1 (centres undefined) | -3.36

SMILES | cytotoxicity at 70.5 h [%]
Cc1occc1CNC(=O)C1CCCN1C(=O)C1CC1 (centres undefined) | -6.76
CCc1nc(C2CCCN2CCc2cccs2)no1 (centres undefined) | 17.3
Cc1ccc2cccc(S(=O)(=O)N(C)C3CCCN(C)C3)c2n1 (centres undefined) | 0.353
CCc1nccn1CC(=O)Nc1cccc(C(=O)N(C)C)c1 | 7.42
COC(=O)CNC(=O)CCCn1cnc2ccccc2c1=O | -1.4
O=C(CCn1c(=O)oc2ccccc21)NCC(O)c1ccc(Cl)cc1 (centres undefined) | 9.7
Cc1cc(CN(C)C(=O)CN2CCCCCC2=O)no1 | -10.3
Cc1cc(NC(=O)Cc2ccc3c(c2)OCO3)n(C)n1 | -0.417
O=C(CC1CCCO1)NCCCC(=O)Nc1ccc(Cl)cc1 (centres undefined) | -7.07
CCOC(C)C(=O)NCCNS(C)(=O)=O (centres undefined) | -6.01
O=C(Cc1cccc(F)c1)NCCNS(=O)(=O)C1CCCC1 | -12.5
O=C(Cc1ccccc1)NCCNS(=O)(=O)C1CCCCC1 | -2.64
CCCS(=O)(=O)NCCc1ncc(C)s1 | -11.1
CN(C)S(=O)(=O)N1CCN(C(=O)OC(C)(C)C)CC12CCCCC2 | -6.87
CC(C)(NS(C)(=O)=O)c1nc(-c2ccc(F)cc2Cl)no1 | -6.02
CC(C)(NS(C)(=O)=O)c1nc(-c2cccc(Cl)c2)no1 | -4.4
Cn1ccc(NCc2cc3cc(F)ccc3o2)n1 | -4.66
CCN(CC)S(=O)(=O)N1CCCN(CC2CCCO2)CC1 (centres undefined) | 23.8
CC1c2ccsc2CCN1Cc1cc2c(cc1O)OCO2 (centres undefined) | -5.73
OC(CNC1CCOCC1)c1cccc(OCc2ccccc2)c1 (centres undefined) | -10.5
CNC(=O)NCC(CO)Cc1cccc(OC(F)(F)F)c1 (centres undefined) | -8.42
CCN(CC)c1ncc(CNCC2CCCn3ccnc32)s1 (centres undefined) | 8.16
Cc1ncc(CNCC(=O)NC2CCCCC2)n1-c1ccccc1 | 9.11
Cc1ccc(C)c(C(O)CN(C)Cc2nnc3ccccn23)c1 (centres undefined) | 9.37

SMILES | cytotoxicity at 70.5 h [%]
CC1CCCN(c2ccccc2OCC(=O)NC2CCOCC2)C1 (centres undefined) | 28.3
O=C(CCc1ccsc1)N(Cc1ccccn1)C1CC1 | -2.46
CCC(C)NC(=O)c1ccc(-c2ccco2)[nH]c1=O (centres undefined) | -5.06
CC(COCC(F)(F)F)NC(=O)c1ccc(-c2ccco2)[nH]c1=O (centres undefined) | -1.67
CC(C)NC(=O)CNC(=O)C12CCC(=O)N1c1cc(Cl)ccc1S2 (centres undefined) | -0.426
CC(C)c1ccc(CS(=O)(=O)Cc2nc(N)nc(N(C)C)n2)cc1 | -6.09
COCC(=O)N1CCN(C(=O)CCc2ccsc2)CC1 | -3.39
CC1CCCN(c2ccccc2OCC(=O)N2CCOCC2)C1 (centres undefined) | 17.5
Cc1nc(-c2ccccc2)sc1CSCCS(C)(=O)=O | 1.82
Nc1cc2c(nn1)CCN(C(=O)c1csc(-c3cccs3)n1)C2 | -6.75
Cc1nc(C(=O)NC2CCN(CCOc3ccc(Br)cc3)CC2)cs1 | 1.52
Cc1nc(-c2ccccc2)sc1CSC(C)C(N)=O (centres undefined) | -1.25
CCOCc1cnc2n1CCN(C(=O)c1ccoc1C)C2C (centres undefined) | 9.87
COCC(=O)N1CCO[C@]2(CCC[C@H]2COC)C1 | 9.79
O=C([C@H]1C[C@@H]2CN(c3ncc(F)cn3)C[C@H]1O2)N1CCOCC1 | -7.72
Cc1ncnc2c1CCN(S(=O)(=O)C1CC1)CC2 | -13.2
CS(=O)(=O)NCc1noc2c1CN(C(=O)C1CCC1)CC2 | -8.52
Cc1n[nH]c2ncc(CNC3CCCN(c4ncccn4)C3)cc12 (centres undefined) | 0.0496
CN(C)C(=O)COC1COC2(CCN(CC3CCOCC3)CC2)C1 (centres undefined) | -4.78
COC1COC2(CCN(CC3CCOCC3)CC2)C1 (centres undefined) | -11.1
CN1CCN(c2ncnc3c2CCN(S(=O)(=O)C2CC2)CC3)CC1 | -11.6
CN(C)CCO[C@H]1CN(CC2CC2)[C@@H]2CCCO[C@H]12 | 11.6
COCC1CC2(CCN(c3cccc(C)n3)CC2)CN1C(C)C (centres undefined) | -8.05
